Read-outs that look alike come from different tables or passages of the source.
Assays:
[1] = test system: 2SD cells (mitochondrial disease model cell); test: exhaustive gene expression analysis (microarray) after lactate or pyruvate treatment; type: cell-based, human
From the text: (i) Cybrid cells established from myoblasts in MELAS (mitochondrial myopathy, encephalopathy, lactic acidosis, and stroke-like episodes), which is relatively high incident among mitochondrial diseases patient and human osteosarcoma 143B cells were used in the experiment. Specifically, myoblast cells from MELAS patients lacking the cell nuclei were fused with human osteosarcoma-derived 143B cells lacking mitochondrial DNA (mtDNA). From some fused cell lines, a cell line without m.3243A>G mutation in mtDNA was used as control cell (2SA) and a cell line with m.3243A>G mutation with 94% was used as mitochondrial disease model cell (2SD) (the mutation ratio is not 100%, because mitochondria is heteroplasmy). Cells were cultured in high-glucose Dulbecco's modified Eagle's medium (DMEM) supplemented with 10% FBS, 1 mM sodium pyruvate, and 0.4 mM uridine at 37° C. under a humidified atmosphere of 5% CO2. Total RNA was isolated from cells by using a miRNeasy mini kit (Qiagen, Venlo, Netherlands). One hundred nanograms of total RNA was labeled and amplified with a low input quick amp labeling kit (Agilent Technologies, Santa Clara, Calif., USA) used according to the manufacturer's instructions. The labeled cRNA was hybridized to the Agilent SurePrint G3 Human GE 8×60K Microarray in a rotating hybridization oven at 10 rpm for 20 h at 65° C. After hybridization, the microarrays were washed according to the manufacturer's instructions and scanned on an Agilent DNA Microarray Scanner with Scan Control software. The resulting images were processed, and raw data were collected by using Agilent Feature Extraction software. Expression data were analyzed by using GeneSpring GX 11 (Agilent Technologies). The signal intensity of each probe was normalized by a percentile shift, in which each value was divided by the 75th percentile of all values in its array. For pairwise comparison analysis, only the probes that had expression flags present under at least one condition were considered. The list was analyzed with Ingenuity Pathways Analysis software (Ingenuity Systems, Redwood, Calif., USA). (i) 2SA cells and 2SD cells were collected at 0, 4, and 8 hours after treatment of 10 mM lactate or 10 mM of pyruvate. After RNA were extracted from these cells, exhaustive gene expression analysis were performed using microarray analysis.

2SD cells [2] = test: quantitative RT-PCR of GDF15, INHBE and IL1A expression; type: cell-based, human; conditions: 10 mM, 4 and 8 hours after treatment
Experimental: Total RNA was isolated from cells with miRNeasy-minikit (Qiagen), and reverse transcribed to cDNA with a High Capacity cDNA Reverse Transcription Kit (Life Technologies, Carlsbad, Calif., USA) used according to the manufacturer's protocols. Real-time PCR was performed on the StepOnePlus Real-Time PCR System (Life Technologies) using Power SYBR Green PCR Master Mix. 18S rRNA gene was used as an internal control for normalization. The sequences of primers are listed in Table 1(The numbers in the sequence listing, SEQ ID NO: 1 to 1 stage left, SEQ ID NO: 2 to the right sequentially subjected to SEQ ID NO: 8.).
(iv) In order to determine the expression level of GDF15, INHBE and IL1A in cells, quantitative RT-PCRs were performed. The expression level of GDF15, INHBE, and IL1A were increased at 4 and 8 hours after treatment with 10 mM lactate in 2SD cells, otherwise they were not changed after treatment with 10mM pyruvate. The expression level of GDF15 was higher in 2SD cells than in 2SA cells at 0 hour. On the results, the reproducibility of the microarray data were confirmed. GDF15, INHBE, and IL1A were identified as biomarkers for mitochondrial diseases (FIG. 2 to FIG. 4).

2SD cells [3] = test: ELISA of GDF15 concentration in culture medium; type: cell-based, human; conditions: 10 mM lactate, medium cultured 24 h
Experimental: Cells were placed on 60-mm dishes 1 day before replacing the medium with fresh medium. Conditioned medium cultured for 24 h was collected, and the particulates were removed by centrifugation (at 500×g for 10 min, at 10,000×g for 30 min). The GDF15 and INHBE concentrations in the supernatants and in the sera of patients were determined in duplicate by using a Human GDF-15 Immunoassay (DGD150, R&D Systems, Minneapolis, Minn., USA) and enzyme-linked immunosorbent assay kit for Inhibin Beta E (E90048Hu, Uscn Life Science, Wuhan, Hubei, PRC) according to the manufacturer's instructions. For measuring IL1A and other cytokine concentrations, the sera were subjected to a multiplex suspension array, Bio Plex Pro Human Cytokine Grp II Panel 21-Plex (MF0-005KMII, Bio-Rad, Hercules, Calif., USA). The cytokines measured by use of this array were the following: IL-2Rα, IL-3, IL-12 (p40), IL-16, IL-18, CTACK, GRO-α, HGF, IFN-α2, LIF, MCP-3, M-CSF, MIF, MIG, β-NGF, SCF, SCGF-β, SDF-1α, TNF-β, and TRAIL.
(v) The concentrations of three secreted proteins as candidate biomarkers in cell culture were measured by ELISA and multiplex suspension arrays. […] Other secreted proteins could not be measured under the detection limit.

2SA cells (control cell) [4] = test: metabolome analysis of energy metabolism; type: cell-based, human; conditions: high concentration
Experimental: (§1) (ii) Metabolome analysis were performed using 2SA cells and 2SD cells. […] The energy metabolism disorder has become remarkable 4 hours after treatment of high concentration of lactic acid (10 mM) in 2SD cells, and the phenomenon was not observed after treatment of high concentration of pyruvic acid (10 mM). The energy metabolism disorder was not observed after treatment of high concentration of lactic acid in 2SA cells. Based on the results, we came up with the forecast that the genes expressed in 2SD cells with energy metabolism disorders in a high concentration of lactic acid may be new biomarkers that reflects the energy metabolic disorder of mitochondrial disease patients.

2SD cells [5] = test: metabolome analysis of energy metabolism; type: cell-based, human; conditions: 10 mM, 4 hours after treatment
Experimental: as §1

2SD cells [6] = conditions: 10 mM, 4 hours after treatment, non-patent document 1; cited from earlier work
2SA cells (control cell) [7] = conditions: high concentration, non-patent document 1; cited from earlier work
[8] = test system: mitochondrial disease patients; test: sodium pyruvate therapy for mitochondrial disease patients; type: in vivo, human; conditions: patients n=10, 0.3 g/kg to 2 g/kg, over seven years
From the text: 4. Study of sodium pyruvate therapy for mitochondrial disease patients For mitochondrial disease patients (n=10), sodium pyruvate (0.3 g/kg to 2 g/kg) had been administered for over seven years. During the period, the transition of
FGF-21 and GDF-15 had been determined and parameters of other therapeutic effects had been investigated. The mitochondrial disease patients contained PDH E1A deficiency, MELAS/cardiomyopathy with A3243G mutation, and MELAS/Leigh syndrome with G13513A mutation in the ND5 gene.

[9] = 10 mM lactate, 8 h vs 0 h after lactate treatment
[10] = lactate vs pyruvate treatment at 8 h

CC(O)C(=O)O (stereo not shown) [lactate, lactic acid]
Fold Change L-8/L-0, ADAMTS17 [1, 9]: 3.5
Fold Change L-8/L-0, ADM2 [1, 9]: 10.3
Fold Change L-8/L-0, AMTN [1, 9]: 5.0
Fold Change L-8/L-0, APOL6 [1, 9]: 6.2
Fold Change L-8/L-0, AREG [1, 9]: 14.0
Fold Change L-8/L-0, C1QTNF1 [1, 9]: 2.6
Fold Change L-8/L-0, C12orf39 [1, 9]: 6.3
Fold Change L-8/L-0, CLEC3B [1, 9]: 2.1
Fold Change L-8/L-0, CXCL1 [1, 9]: −3.4
Fold Change L-8/L-0, DKK1 [1, 9]: −2.1
Fold Change L-8/L-0, ECM2 [1, 9]: 11.8
Fold Change L-8/L-0, GDF15 [1, 9]: 27.4
Fold Change L-8/L-0, HECW2 [1, 9]: 2.4
Fold Change L-8/L-0, IGFALS [1, 9]: 2.3
Fold Change L-8/L-0, IGFBPI [1, 9]: 2.3
Fold Change L-8/L-0, IL1A [1, 9]: 7.6
Fold Change L-8/L-0, IL23A [1, 9]: 4.4
Fold Change L-8/L-0, INHBE [1, 9]: 15.0
Fold Change L-8/L-0, MMP3 [1, 9]: 9.8
Fold Change L-8/L-0, PDGFA [1, 9]: 2.2
Fold Change L-8/L-0, PDGFB [1, 9]: 2.8
Fold Change L-8/L-0, PDZRN3 [1, 9]: −2.4
Fold Change L-8/L-0, SCG5 [1, 9]: 5.2
Fold Change L-8/L-0, SLC39A10 [1, 9]: −2.3
Fold Change L-8/L-0, SPOCK2 [1, 9]: 5.1
Fold Change L-8/L-0, STC2 [1, 9]: 3.4
Fold Change L-8/L-0, VEGFA [1, 9]: 3.4
Fold Change L-8/P-8, ADAMTS17 [1, 10]: 2.2
Fold Change L-8/P-8, ADM2 [1, 10]: 3.0
Fold Change L-8/P-8, AMTN [1, 10]: 3.9
Fold Change L-8/P-8, APOL6 [1, 10]: 3.8
Fold Change L-8/P-8, AREG [1, 10]: 2.2
Fold Change L-8/P-8, C1QTNF1 [1, 10]: 2.9
Fold Change L-8/P-8, C12orf39 [1, 10]: 6.7
Fold Change L-8/P-8, CLEC3B [1, 10]: 2.2
Fold Change L-8/P-8, CXCL1 [1, 10]: −2.6
Fold Change L-8/P-8, DKK1 [1, 10]: −2.3
Fold Change L-8/P-8, ECM2 [1, 10]: 9.0
Fold Change L-8/P-8, GDF15 [1, 10]: 14.8
Fold Change L-8/P-8, HECW2 [1, 10]: 2.1
Fold Change L-8/P-8, IGFALS [1, 10]: 2.5
Fold Change L-8/P-8, IGFBPI [1, 10]: 2.1
Fold Change L-8/P-8, IL1A [1, 10]: 6.0
Fold Change L-8/P-8, IL23A [1, 10]: 2.8
Fold Change L-8/P-8, INHBE [1, 10]: 9.4
Fold Change L-8/P-8, MMP3 [1, 10]: 4.2
Fold Change L-8/P-8, PDGFA [1, 10]: 2.2
Fold Change L-8/P-8, PDGFB [1, 10]: 3.8
Fold Change L-8/P-8, PDZRN3 [1, 10]: −2.0
Fold Change L-8/P-8, SCG5 [1, 10]: 3.0
Fold Change L-8/P-8, SLC39A10 [1, 10]: −2.9
Fold Change L-8/P-8, SPOCK2 [1, 10]: 6.6
Fold Change L-8/P-8, STC2 [1, 10]: 2.6
Fold Change L-8/P-8, VEGFA [1, 10]: 2.5
expression level of GDF15 (2SD cells [2]): increased
expression level of IL1A (2SD cells [2]): increased
expression level of INHBE (2SD cells [2]): increased
concentration of GDF15 in culture medium (2SD cells [3]): increased
energy metabolism disorder (2SA cells (control cell) [4]): not observed
energy metabolism disorder (2SD cells [5]): remarkable
energy metabolism disorder (2SD cells [6]): remarkable
energy metabolism disorder (2SA cells (control cell) [7]): not observed

CC(=O)C(=O)O [pyruvate, pyruvic acid]
expression level of GDF15 (2SD cells [2]): not changed
expression level of IL1A (2SD cells [2]): not changed
expression level of INHBE (2SD cells [2]): not changed
energy metabolism disorder (2SD cells [5]): not observed
energy metabolism disorder (2SD cells [6]): not observed

CC(=O)C(=O)[O-].[Na+] [sodium pyruvate]
concentration of GDF-15 [8]: significantly reduced
concentration of alanine [8]: significantly reduced
concentration of lactate [8]: significantly reduced
concentration of pyruvate [8]: significantly reduced
side effects [8]: no side effects were observed
therapeutic effect [8]: highly effective therapy

From patent US20170010280A1, “GDF15 AS BIOMARKER FOR DIAGNOSING MITOCHONDRIAL DISEASES” (TOKYO METROPOLITAN GERIATRIC HOSPITAL AND INSTITUTE OF …, priority 2014, published 2017)
